From US10874749B2, “Gene therapies for neurodegenerative disorders targeting ganglioside biosynthetic pathways” (priority 2015, dated 2020)

What was measured:
DA uptake = assay: Striatal uptake of tritiated dopamine (3H-DA) in striatal homogenates; assay type: in vivo, mouse; conditions: 3 minutes
Method: Whole striatal homogenates were exposed to [^3H] DA for 3 minutes in the presence or absence of mazindol to examine the influence of sialidase treatment on DA uptake.
In mouse studies as depicted in FIG. 4, striatal uptake of tritiated dopamine (^3H-DA) was examined. […] Striatal homogenates were incubated with ^3H-DA in the presence (non-specific) or absence (total) of the DA uptake inhibitor mazindol (Maz).

YAC128 mice = conditions: cited from earlier work
PD patients = assay: Randomized, controlled, delayed start clinical study of GM1 in PD patients; assay type: in vivo, human
Excerpt: The more highly expressed gangliosides in the brain are GM1, GD1a, GD1b, GT1b, and GD3. […] Although GM1 administration has promise as a treatment for PD, it is difficult to source, is currently available only as a natural product extracted and purified from animal brains, and has low ability to cross the blood brain barrier.
The mean (±SE) change from baseline in Early-start (randomized to receive GM1 at start of study) and Delayed-start (randomized to receive placebo at start of study) study subjects and in a standard-of-care comparison group (no interventions). The dashed vertical line at week 24 indicates the end of study Phase I. After that, all subjects received GM1. The dashed vertical line at week 120 indicates the end of study Phase II. The horizontal dashed line indicates baseline level. An increase of score indicates symptom worsening; a decrease in score indicates symptom improvement. *=p<0.0001 Early-start vs. Delayed-start; ^=p<0.05 Early-start vs. Delayed-start

[1] = cited from earlier work
DAergic hES cells = assay: Rescue of DAergic hES cells from MPP+ toxicity (TH immunopositive cell count); assay type: cell-based, human
Method: Human stem cells were differentiated into a dopaminergic (DAergic) phenotype using a well characterized method (Iacovitti et al. 2007 as modified in Cai et al., 2013).
hES cells were plated onto 24 well plates. Cells were pretreated with sialidase, GM1 or standard media for 2 hrs and were then exposed to the mitochondrial toxin MPP^+. Twenty-four hours later, media containing toxin was removed and fresh media containing the appropriate concentration of rescue agent was added. Two days later, cells were fixed, processed for tyrosine hydroxylase (TH) immunocytochemistry and the number of TH immunopositive cells were counted.
FIGS. 3A and 3B depict the protection/rescue of human embryonic stem cells from MPP^+ toxicity. A) The number of tyrosine hydroxylase immunopositive (TH^+) cells was reduced as a result of MPP^+ treatment.
Accordingly, the examples and studies identify that human embryonic stem (hES) cells, when differentiated into dopaminergic neurons, are susceptible to MPP^+ toxicity. However, there are mechanisms that exist that can mitigate the effects of MPP^+ toxicity. Indeed, MPP^+ toxicity in hES cells is mitigated by both GM1 and 0.005 U/mL VCS. Therefore, treatment with a sialidase, such as sialidase Neu3 that increases the amounts of GM1 expression in the striatum and the substantia nigra will provide neuroprotective effects.

[2] = hES cells differentiated to dopaminergic phenotype

OC1(c2ccc(Cl)cc2)c2ccccc2C2=NCCN21 (centres unmarked) [Mazindol, mazindol]
total DA uptake (3H-DA) (DA uptake): effectively blocked

GM1
striatal dopamine levels (YAC128 mice; HD models, intracranial administration): normalization | mHtt phosphorylation (YAC128 mice; YAC128 mice, infusion pump): phosphorylation of mHtt at serine residues 13 and 16 | time to normalization of motor function from start of treatment (YAC128 mice; infusion pump, YAC128 mice symptomatic for motor impairment): ≤ 2 weeks | change from baseline in score, early effect (PD patients; Early-start vs Delayed-start, Phase I to week 24): early symptomatic effect | change from baseline in score, later effect (PD patients; Phase II to week 120): later disease modifying effect | clinical benefit and symptom progression (PD patients; extended GM1 use up to 120 weeks): sustained clinical benefit and lower than expected symptom progression | improving motor symptoms vs placebo (PD patients; first 24 weeks of the study): superior to placebo | oral bioavailability [1]: no oral bioavailability | bioavailability/penetrance across the blood brain barrier ([1]; systemically administered): low | number of tyrosine hydroxylase immunopositive (TH+) cells (DAergic hES cells; 5 and 10 μM doses of MPP+, pretreated 2 hrs): prevented cell loss | protection/rescue from MPP+ toxicity (TH+ cells) (DAergic hES cells; [2]): mitigated

VCS: Sialidase V purified from Vibrio cholerae; cleaves a2-8 linkages and terminal a2-3 linkages
protection/rescue from MPP+ toxicity (TH+ cells) (DAergic hES cells; 0.005 U/mL VCS): mitigated | protection/rescue from MPP+ toxicity (TH+ cells) (DAergic hES cells; [2]): protect/rescue cells from MPP^+ toxicity
